Assay results: patent publication US8841257B2, “Inhibitors of STAT3 and uses thereof” (Board of Regents, The University of Texas System, priority 2009, dated 2014)
Entries after “also recorded” stand apart in the source; their conditions may differ.

What was measured:
[1] = system: non-small cell lung cancer cell lines; experiment: Lung tumor cell viability assay, NSCLC cell lines; type: cell-based; conditions: 0.25-5.0 μM in DMSO; 72 h
Description: Lung Tumor Cell Viability Assay: H1819, H1299 and H827 lung tumor cells were seeded in 6-well plates at a density of 6×10^4, 4×10^4 and 5×10^4 cells/well, respectively. Prodrugs were dissolved in DMSO to make a stock concentration of 500 μM. The following day the cells were treated either with DMSO alone or with 0.25 μM, 0.5 μM, 1.0 μM, 2.5 μM and 5.0 μM of the compounds from Example 1, Example 16, and Example 22. Seventy two h after treatment with the drug the cells were subjected to cell viability assay using trypan blue. […] Cells were plated and after 24 hr were treated with the compound of Example 16 in DMSO. After 72 hr, cells were counted. Note that vertical axes are different for each plot.

STAT1 = biological target: T1, STAT1 (Homo sapiens, UniProt P42224); experiment: IFNγ-stimulated STAT1 phosphorylation in MDA-MB-468 cells; type: cell-based; set-up: host or cells: MDA-MB-468 breast tumor cells; conditions: for inhibition of Stat1 phosphorylation compared with Stat3 phosphorylation: 1.5 hr prodrug, then interferonγ 25 ng/mL 30 min; for fold less potent at inhibiting STAT1 than STAT3: MDA-MB-468 cells
T1 sequence (P42224 1-750): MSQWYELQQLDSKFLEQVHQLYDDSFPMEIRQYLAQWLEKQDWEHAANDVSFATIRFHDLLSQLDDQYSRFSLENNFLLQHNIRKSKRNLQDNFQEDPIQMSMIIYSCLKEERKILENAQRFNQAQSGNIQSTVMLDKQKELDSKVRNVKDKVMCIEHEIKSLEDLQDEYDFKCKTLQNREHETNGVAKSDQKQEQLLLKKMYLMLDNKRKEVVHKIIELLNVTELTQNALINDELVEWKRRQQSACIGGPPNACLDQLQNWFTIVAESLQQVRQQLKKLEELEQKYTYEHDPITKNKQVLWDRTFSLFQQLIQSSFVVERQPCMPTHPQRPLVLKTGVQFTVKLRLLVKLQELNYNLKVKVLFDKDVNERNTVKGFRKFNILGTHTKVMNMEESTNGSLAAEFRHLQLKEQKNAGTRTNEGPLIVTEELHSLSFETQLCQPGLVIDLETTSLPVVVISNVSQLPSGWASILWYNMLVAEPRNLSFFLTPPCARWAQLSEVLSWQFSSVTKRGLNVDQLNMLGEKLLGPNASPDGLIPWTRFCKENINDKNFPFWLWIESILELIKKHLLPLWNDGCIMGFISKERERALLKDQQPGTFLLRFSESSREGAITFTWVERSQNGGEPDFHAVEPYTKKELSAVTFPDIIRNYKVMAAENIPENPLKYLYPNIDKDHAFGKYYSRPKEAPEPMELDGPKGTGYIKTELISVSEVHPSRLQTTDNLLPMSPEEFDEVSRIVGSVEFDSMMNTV
Description: Effect of Prodrug on the phosphorylation of STAT1 in MDA-MB-468 breast tumor cells. MDA-MB-468 cells were prepared as above. Prodrugs were prepared as 10 mM stock solutions in DMSO and aliquots were added to the culture media to give the correct final concentrations. After 1.5 hr interferonγ was added at 25 ng/mL. After 30 minutes cells were collected and lysed and proteins were separated by PAGE and transferred to PVDF filters as above. Filters were probed for phosphoTyr701 Stat 1 and total Stat1 using appropriate antibodies and similar detection procedures to those used for Stat3.

STAT3 = STAT3 (Homo sapiens, UniProt P40763); experiment: Inhibition of Stat3 tyrosine705 phosphorylation in MDA-MB-468 cells; type: cell-based; set-up: host or cells: MDA-MB-468 breast tumor cells; conditions: 2 h; for inhibition of Tyr705 phosphorylation of Stat3 (potency in words): prodrug in DMSO
Description: Inhibition of Stat3 tyrosine705 phosphorylation in MDA-MB-468 cells. MDA-MB-468 breast tumor cells (0.4×10^6) were plated onto 35 mm culture dishes and were allowed to grow overnight. Prodrugs were prepared as 10 mM stock solutions in DMSO and aliquots were added to the culture media to give the correct final concentrations. After 2 h the cells were washed with ice cold phosphate buffered saline. Washed cells were treated with lysis buffer (50 mM Hepes, pH 7.4, 150 mM NaCl, 1.5 mM MgCl2, 1 mM EGTA, 100 mM NaF, 10 mM sodium pyrophosphate, 10% glycerol, 1% Triton X-100, 1 mM PMSF, 1 mM Na3VO4, 10 μg/mL leupeptin and 10 μg/mL aprotinin). Cell-free detergent extracts were centrifuged at 15,000 rpm in a microcentriguge for 30 min at 4° C. and the protein concentrations of the supernatants determined. Aliquots containing 12 μg of protein were separated on 8% SDS-PAGE and were transferred to PVDF filters. The filters were blocked with 5% bovine serum albumin and were probed with pStat3^Y705 antibody followed by secondary antibody, whose signal was detected with an enhanced chemiluminescence kit (ECL, Amersham, Chicago, Ill.). Filters were stripped with stripping buffer (62.5 mM Tris, pH 6.8, 2% SDS, and 0.1 M 2-mercaptoethanol) at 50° C. for 30 min. Filters were then probed with total Stat3 antibody and visualized with chemiluminescence as above.

STAT5 = experiment: EGF-stimulated STAT5 phosphorylation in MDA-MB-468 cells; type: cell-based, human; conditions: 1.5 hr prodrug, then EGF 100 ng/mL 30 min
Description: (§1) Effect of prodrug on the phosphorylation of STAT3, STAT5 and Akt in response to Epidermal Growth Factor stimulation. MDA-MB-468 cells were prepared as above. Prodrugs were prepared as 10 mM stock solutions in DMSO and aliquots were added to the culture media to give the correct final concentrations. After 1.5 hr EGF was added at 100 ng/mL. After 30 minutes cells were collected and lysed and proteins were separated by PAGE and transferred to three PVDF filters as above. The first filter was blocked with 5% bovine serum albumin and probed for total and phosphoStat3 as above. The second filter was probed for phosphoSer473Akt and total Akt using appropriate antibodies and similar detection procedures to those used for STAT3. The third filter was probed for phosphoTyr699 Stat5 and total STAT5 using appropriate antibodies and similar detection procedures to those used for STAT3.

[2] = system: Focal Adhesion Kinase (FAK); experiment: Phosphorylation of Focal Adhesion Kinase Tyr861 in MDA-MB-468 cells; type: cell-based, human; conditions: 2 hr treatment
Description: Effect of Prodrug on the phosphorylation of Focal Adhesion Kinase (FAK) in MDA-MB-468 breast tumor cells. MDA-MB-468 cells express constitutive phosphorylation of Tyr861 of FAK (Laird, A. et al., Src Family Kinase Activity is Required For Signal Tranducer and Activator of Transcription 3 and Focal Adhesion Kinase Phosphorylation and Vascular Endothelial Growth Factor Signaling In Vivo and For Anchorage-Dependent and Independent Growth Of Human Tumor Cells, Mol Cancer Ther, 2, 461-9(2003). a unique substrate of Src upon recruitment via its SH2 domain (Calalb, M. B., et al, S. K. Focal adhesion kinase tyrosine-861 is a major site of phosphorylation by Src. Biochem Biophys Res Commun 1996, 228, 662-8 (1996.) To test for cross reactivity to the Src SH2 domain, MDA-MB-468 cell extracts were probed for phosphorylation of Tyr861 of FAK.

Akt = experiment: EGF-stimulated Akt Ser473 phosphorylation in MDA-MB-468 cells; type: cell-based, human; conditions: 1.5 hr prodrug, then EGF 100 ng/mL 30 min
Description: as §1

Sequence of STAT3 (P40763 whole entry): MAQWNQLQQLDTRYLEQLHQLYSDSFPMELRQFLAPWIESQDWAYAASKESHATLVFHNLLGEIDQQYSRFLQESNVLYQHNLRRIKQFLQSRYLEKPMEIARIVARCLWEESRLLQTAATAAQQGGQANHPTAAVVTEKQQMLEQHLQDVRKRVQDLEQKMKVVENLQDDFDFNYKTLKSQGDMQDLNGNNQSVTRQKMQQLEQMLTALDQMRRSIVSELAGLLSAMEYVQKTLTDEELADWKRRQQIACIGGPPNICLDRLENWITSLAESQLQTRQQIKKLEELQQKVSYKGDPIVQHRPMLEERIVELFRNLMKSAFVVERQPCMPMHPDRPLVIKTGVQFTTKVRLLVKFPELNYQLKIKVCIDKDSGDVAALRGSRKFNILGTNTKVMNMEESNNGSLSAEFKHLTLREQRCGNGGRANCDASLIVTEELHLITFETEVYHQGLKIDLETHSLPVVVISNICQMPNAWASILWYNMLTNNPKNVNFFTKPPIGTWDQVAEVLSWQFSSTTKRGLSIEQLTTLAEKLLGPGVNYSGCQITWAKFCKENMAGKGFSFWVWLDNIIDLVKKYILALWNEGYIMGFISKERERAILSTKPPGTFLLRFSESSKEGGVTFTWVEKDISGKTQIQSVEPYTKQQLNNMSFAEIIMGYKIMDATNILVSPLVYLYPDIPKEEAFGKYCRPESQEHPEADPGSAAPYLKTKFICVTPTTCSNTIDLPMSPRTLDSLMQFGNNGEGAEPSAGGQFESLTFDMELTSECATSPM

SMILES	growth / viability of NSCLC cell lines [1]	inhibition of Stat1 phosphorylation compared with Stat3 phosphorylation (STAT1)	fold less potent at inhibiting STAT1 than STAT3 (STAT1)	concentration as low as which partial inhibition of STAT3 phosphorylation was seen (STAT3) [nM]	concentration at which complete inhibition of STAT3 phosphorylation occurred (STAT3) [nM]	inhibition of Tyr705 phosphorylation of Stat3 (potency in words) (STAT3)	Stat5 phosphorylation after EGF (STAT5)	phosphorylation of FAK Tyr861 [2]	Akt Ser473 phosphorylation after EGF (Akt)
C/C(=C\C(=O)N[C@H]1CCc2cccc3c2N(C1=O)[C@H](C(=O)N[C@H](C)CCC(N)=O)C3)c1ccc(C(F)(F)P(=O)(OCOC(=O)C(C)(C)C)OCOC(=O)C(C)(C)C)cc1 [Example 1, (2E)-3-[4-[[bis[(2,2-dimethyl-1-oxopropoxy)methoxy]phosphinyl]difluoromethyl]phenyl]-but-2-enoyl-Haic-(R)-4-aminopentamide]	inhibition	less effective	about 10 fold	10	500	very potent inhibitors	no effect	no reduction; also recorded: do not inhibit	no effect
CCCC[C@H](NC(=O)/C=C(\C)c1ccc(C(F)(F)P(=O)(OCOC(=O)C(C)(C)C)OCOC(=O)C(C)(C)C)cc1)C(=O)N1C[C@H]2CC2[C@H]1C(=O)N[C@@H](CCC(N)=O)[C@@H](C)OCc1ccccc1 (stereo partly drawn) [Example 16, (2E)-3-[4-[[bis[(2,2-dimethyl-1-oxopropoxy)methoxy]phosphinyl]difluoromethyl]phenyl]-but-2-enoyl-norleucinyl-(2S,3R,4S)-methanoprolinyl-(4S,5R)-4-amino-5-benzyloxyhexamide]	inhibition of growth	less effective	about 10 fold	10	500	very potent inhibitors	no effect	no reduction; also recorded: do not inhibit	no effect
